Results reported in article PMC5441580, “GPR40 partial agonist MK-2305 lower fasting glucose in the Goto Kakizaki rat via suppression of endogenous glucose production” (PLoS ONE, 2017).
“And” between values parts separate entries of the source, which are not always exact repeats. Equal entries are not always repeated.

Test system: GK rats
Test: GK rat chronic efficacy, compound in feed for 20 days
Assay type: in vivo
Settings: for Fasted blood glucose / Fasted plasma insulin: individual animals; for Morning (fed) Blood Glucose: MK-2305 10 mpk in feed; for decrease in fed glucose vs. vehicle: p < 0.05
Protocol: At the start of the study, fed glucose was measured at 8 A.M., and animals were selected and sorted into treatment groups based on ambient glucose (n = 10/male GK group, n = 6/male WKY control group). […] Fed blood glucose, food intake, and body weights were determined on days 0, 1, 3, 7, and 14 of study at 8 A.M. On days 7 and 14, food was removed for 5 h and plasma glucose was measured. Percent inhibitions were calculated as the percent reduction of blood glucose from the average value for vehicle controls. On day 14, blood was collected from the tail vein (20 μl) after the morning glucose measurement and after 5 h fast from a subset of n = 3 rats per treatment group to determine the ambient and fasted exposure of the compounds in circulation. The blood was stored at 4°C in 0.1 M sodium monocitrate for subsequent analysis. Animals were then re-fed their respective diet treatments. On day 20 of treatment at 8 A.M., blood glucose was measured and then animals were euthanized via CO2 asphyxiation. Blood and liver tissue were sampled, processed, and stored at -80°C until analysis.
Plasma was analyzed for triglycerides, NEFA, and HbA1C using a P Modular Roche Clinical Chemistry analyzer. Liver triglycerides were extracted as described by Bligh and Dyer, and were measured using the Infinity triglyceride assay kit (Thermo Scientific, Rockford, IL). Plasma insulin levels were measured via EIA (Mesoscale Discovery ELISA Kit, Gaithersburg MD).

## O=C1NC(=O)C(C2CCOc3cc(Oc4ccc(C(F)(F)F)cc4Cl)ccc32)S1 (stereo not shown) [MK-2305]
Day 7, ~6 hrs after food removal, 30mpk, chronic study, 30 mg/kg
  Fasted blood glucose: 110 mg/dl (2×) and 125 mg/dl and 135 mg/dl and 103 mg/dl and 141 mg/dl and 118 mg/dl (2×) and 114 mg/dl
Day 7, 10mpk, 10 mg/kg
  Fasted plasma insulin: 405.2 pg/mL and 91.1 pg/mL and 88.1 pg/mL and 159.3 pg/mL and 284.1 pg/mL and 97.1 pg/mL and 80.9 pg/mL and 605.6 pg/mL and 106.3 pg/mL
Day 7, 30mpk, 30 mg/kg
  Fasted plasma insulin: 199.5 pg/mL and 58.7 pg/mL and 102.1 pg/mL and 88.8 pg/mL and 104.2 pg/mL and 182.8 pg/mL and 66.3 pg/mL and 259.0 pg/mL and 51.6 pg/mL
Day 14, 10mpk, 10 mg/kg
  Fasted plasma insulin: 66.8 pg/mL and 405.9 pg/mL and 135.1 pg/mL and 49.4 pg/mL and 1589.0 pg/mL and 353.3 pg/mL and 247.1 pg/mL and 127.3 pg/mL and 158.9 pg/mL
Day 14, 30mpk, 30 mg/kg
  Fasted plasma insulin: 80.8 pg/mL and 3482.1 pg/mL and 77.9 pg/mL and 794.5 pg/mL and 102.8 pg/mL and 430.5 pg/mL and 972.9 pg/mL and 1169.4 pg/mL and 1639.6 pg/mL
MK2305 @ 10, 20 days of treatment, individual GK rats
  NEFA (mEq/L): 0.23 mEq/L and 0.33 mEq/L and 0.26 mEq/L and 0.5 mEq/L and 0.19 mEq/L and 0.37 mEq/L and 0.32 mEq/L
MK2305 @ 30, 20 days of treatment, individual GK rats
  NEFA (mEq/L): 0.21 mEq/L and 0.43 mEq/L and 0.24 mEq/L and 0.45 mEq/L and 0.39 mEq/L and 0.38 mEq/L and 0.22 mEq/L and 0.34 mEq/L
Day 0 (start of study), individual GK rats, 10 mg/kg
  Morning (fed) Blood Glucose: 184 mg/dL and 260 mg/dL and 210 mg/dL and 227 mg/dL and 237 mg/dL and 193 mg/dL and 200 mg/dL and 191 mg/dL and 179 mg/dL
Day 1, individual GK rats, 10 mg/kg
  Morning (fed) Blood Glucose: 170 mg/dL and 247 mg/dL and 203 mg/dL and 186 mg/dL and 231 mg/dL and 179 mg/dL and 277 mg/dL and 199 mg/dL and 162 mg/dL
Day 3, individual GK rats, 10 mg/kg
  Morning (fed) Blood Glucose: 158 mg/dL and 166 mg/dL and 183 mg/dL and 172 mg/dL and 163 mg/dL and 169 mg/dL and 170 mg/dL and 167 mg/dL
Day 7, individual GK rats, 10 mg/kg
  Morning (fed) Blood Glucose: 150 mg/dL and 185 mg/dL and 138 mg/dL and 158 mg/dL and 179 mg/dL and 152 mg/dL and 224 mg/dL and 161 mg/dL
Day 14, individual GK rats, 10 mg/kg
  Morning (fed) Blood Glucose: 146 mg/dL and 143 mg/dL and 176 mg/dL and 141 mg/dL and 140 mg/dL and 169 mg/dL and 230 mg/dL
Day 20, individual GK rats, 10 mg/kg
  Morning (fed) Blood Glucose: 146 mg/dL and 140 mg/dL and 150 mg/dL and 149 mg/dL and 138 mg/dL and 145 mg/dL and 163 mg/dL and 120 mg/dL
Day 3, 10 mg/kg in feed, GK rats
  decrease in fed glucose vs. vehicle: 22%
Day 3, 30 mg/kg in feed, GK rats
  decrease in fed glucose vs. vehicle: 27%
Day 7, 5 hr fast, 10 mg/kg in feed, GK rats
  reduction in fasting blood glucose vs. vehicle: 19%
Day 7, 5 hr fast, 30 mg/kg in feed, GK rats
  reduction in fasting blood glucose vs. vehicle: 19%
Day 14, 5 hr fast, 10 mg/kg in feed, GK rats
  reduction in fasting blood glucose vs. vehicle: 26%
Day 14, 5 hr fast, 30 mg/kg in feed, GK rats
  reduction in fasting blood glucose vs. vehicle: 30%
Day 20, GK rats, all treatment groups
  effect on circulating HbA1C levels: significantly reduced
Day 20, GK rats, vs. vehicle controls
  effect on liver triglyceride levels: no effect
Day 20, either dose (10, 30 mg/kg), GK rats
  effect on plasma non-esterified fatty acid (NEFA) levels: no effect
Days 7 and 14, 5 hr fast, GK rats
  effect on fasted plasma insulin: no significant effects
Second block of the table (day 14 per title), 10mpk, 10 mg/kg
  Fasted blood glucose: 151 mg/dL and 95 mg/dL and 111 mg/dL and 128 mg/dL and 118 mg/dL and 120 mg/dL and 116 mg/dL and 138 mg/dL and 117 mg/dL
Second block of the table (day 14 per title), 30mpk, 30 mg/kg
  Fasted blood glucose: 112 mg/dl and 113 mg/dl and 108 mg/dl and 115 mg/dl (2×) and 126 mg/dl and 105 mg/dl and 123 mg/dl and 119 mg/dl
